Like-named read-outs stand apart in the source and are kept apart here.
Assays:
MTS viability = type: cell-based; details: human (JMAR, MDA-1986, SKMEL-28, MRC-5) and mouse (B16F10)
[1] = system: HNSCC (JMAR and MDA-1986), melanoma (B16F10 and SKMEL-28), and normal fetal fibroblast (MRC-5) cells; assay: MTS viability; type: cell-based
[2] = Cytotoxicity IC50 (inactive for all cell lines used), all cell lines used (B16F10, SKMEL-28, JMAR, MDA-1986, MRC-5)

| Compound | IC50 (MTS viability; cytotoxicity IC50) | IC50 (MTS viability; [2]) | further results |
| --- | --- | --- | --- |
| CC1=C(CO)C(=O)O[C@@H]([C@@H](C)[C@H]2CC[C@H]3[C@@H]4C[C@H]5O[C@]56[C@@H](O)[C@@H](OS(=O)(=O)O)CC(=O)[C@]6(CO)[C@H]4CC[C@]23C)C1 [Compound 7, 2,3-dihydro-19-hydroxy-3β-O-sulfate-withaferin A] | 0.067 to 9.3 µM | – | – |
| CC1=C(CO)C(=O)O[C@@H]([C@@H](C)[C@H]2CC[C@H]3[C@@H]4CC=C5C=CC(=O)[C@]5(C)[C@H]4CC[C@]23C)C1 [Compound 6, A-nor-27-hydroxy-1-oxowitha-2,5,24-trienolide] | – | – | IC50 (MTS viability): > 10 µM |
| CO[C@H]1CC(=O)[C@]2(C)[C@H]3CC[C@]4(C)[C@@H]([C@H](C)[C@H]5CC(C)=C(CO)C(=O)O5)CC[C@H]4[C@@H]3C[C@H]3O[C@]32[C@H]1O [Compound 17, 2,3-dihydro-3β-methoxywithaferin A] | – | – | IC50 (MTS viability; Cytotoxicity IC50 (inactive for all cell lines used)): > 10 µM |
| CC1=C(CO[C@@H]2O[C@H](CO)[C@@H](O)[C@H](O)[C@H]2O)C(=O)O[C@@H]([C@@H](C)[C@H]2CC[C@H]3[C@@H]4C[C@H]5O[C@]56[C@@H](O)C=CC(=O)[C@]6(C)[C@H]4CC[C@]23C)C1 [Compound 15, 27-O-β-D-glucopyranosyl-withaferin A] | – | – | cytotoxicity relative to the aglycone withaferin A (16) ([1]; MTS assay, comparison in words): less cytotoxicity |
| CC1=C(CO[C@@H]2O[C@H](CO)[C@@H](O[C@@H]3O[C@@H](C)[C@H](O)[C@@H](O)[C@H]3O)[C@H](O)[C@H]2O)C(=O)O[C@@H]([C@@H](C)[C@H]2CC[C@H]3[C@@H]4C[C@H]5O[C@]56[C@@H](O)C=CC(=O)[C@]6(C)[C@H]4CC[C@]23C)C1 [Compound 8, 27-O-[α-L-rhamnopyranosyl(1→4)]-β-D-glucopyranosyl-withaferin A] | 0.067 to 9.3 µM | – | cytotoxicity relative to the aglycone withaferin A (16) [1]: less cytotoxicity |
| CC1=C(CO)C(=O)O[C@@H]([C@@H](C)[C@H]2CC[C@H]3[C@@H]4C[C@H]5O[C@]56[C@@H](O)C=CC(=O)[C@]6(CO)[C@H]4CC[C@]23C)C1 [Compound 1, 19-hydroxywithaferin A] | – | – | IC50 (MTS viability): 0.067 to 9.3 µM |
| CC1=C(CO)C(=O)O[C@@H]([C@@H](C)[C@H]2CC[C@H]3[C@@H]4C[C@H]5O[C@]56[C@@H](O)CCC(=O)[C@]6(C)[C@H]4CC[C@]23C)C1 [Compound 20, 2,3-dihydrowithaferin A] | – | > 10 µM | – |
| CC1=C(C)C(=O)O[C@@H]([C@@H](C)[C@H]2CC[C@H]3[C@@H]4C[C@H]5O[C@]56[C@@H](O)C=CC(=O)[C@]6(CO)[C@H]4CC[C@]23C)C1 [Compound 2, 27-deoxy-19-hydroxywithaferin A] | 0.067 to 9.3 µM | – | – |
| CC1=C(CO)C(=O)O[C@@H]([C@@H](C)[C@H]2CC[C@H]3[C@@H]4C[C@@H]5O[C@@H]6CC(=O)[C@](C)([C@H]4CC[C@]23C)[C@@]5(O)[C@H]6O)C1 [Compound 21, 3α,6α-epoxy-4β,5β,27-trihydroxy-1-oxowitha-24-enolide] | – | > 10 µM | – |
| CC1=C(CO)C(=O)O[C@@H]([C@@H](C)[C@H]2CC[C@H]3[C@@H]4C[C@H]5O[C@]56[C@@H](O)[C@@H](O)CC(=O)[C@]6(C)[C@H]4CC[C@]23C)C1 [Compound 18, viscosalactone B] | – | > 10 µM | – |

Source: PMC3253737 (Journal of Natural Products, 2011)
